# Reference: PMC5682218 (European journal of medicinal chemistry, 2017)
# Where a name gives a salt, the structure may show the parent alone. Read-outs that look alike come from different tables or passages of the source.
# Assays:
# [1] = molecular target: HIV RT-associated RNase H (Human immunodeficiency virus type 1 group M subtype B, UniProt P03366); assay: RNH assay: HIV RT-associated RNase H inhibition, HTS-1 RNA/DNA substrate; type: biochemical, HIV-1
# [2] = molecular target: HIV RT polymerase (pol) (Human immunodeficiency virus type 1 group M subtype B, UniProt P03366); assay: RT polymerase assay; type: biochemical, HIV-1
# [3] = system: HIV-1; assay: MAGI antiviral assay in P4R5 indicator cells; type: cell-based; conditions: Human immunodeficiency virus 1, read-out: MAGI Antiviral EC50
# [4] = Cytotoxicity in cell-based MAGI assay; conditions: human, P4R5 indicator cells (MAGI assay)
# [5] = molecular target: HIV integrase (Human immunodeficiency virus type 1 group M subtype B, UniProt P03366); assay: HIV IN assay; type: biochemical
# [6] = system: P4R5 cells; assay: Cytotoxicity in cell-based MAGI assay; conditions: human
# [7] = concentration inhibiting the target enzyme by 50%
# [8] = read-out: RT IC50 Pol, concentration inhibiting the target enzyme by 50%
Compound,IC50 [1],IC50 [2],also measured
"Cc1c(C(=O)O)sc2[nH]c(=O)n(O)c(=O)c12 [Compound 11h, 3-Hydroxy-5-methyl-2,4-dioxo-1,2,3,4-tetrahydrothieno[2,3-d]pyrimidine-6-carboxylic acid]",0.1 ± 0.02 µM,> 10 µM,–
"CCN1CCc2c(sc3[nH]c(=O)n(O)c(=O)c23)C1 [Compound 11k, 7-Ethyl-3-hydroxy-5,6,7,8-tetrahydropyrido[4′,3′:4,5]thieno[2,3-d]pyrimidine-2,4(1H,3H)-dione hydrochloride]",0.2 ± 0.03 µM,> 10 µM,EC50 [3]: > 20 µM; CC50 at 72 h [4]: > 100 µM; IC50 [5]: > 100 µM
"O=c1[nH]c2scc(-c3ccc(Cl)cc3)c2c(=O)n1O [Compound 11d, 5-(4-Chlorophenyl)-3-hydroxythieno[2,3-d]pyrimidine-2,4(1H,3H)-dione]",–,> 10 µM,"RT IC50 Pol [2, 7]: did not inhibit RT polymerase"
"Cc1sc2[nH]c(=O)n(O)c(=O)c2c1C [Compound 11g, 3-Hydroxy-5,6-dimethylthieno[2,3-d]pyrimidine-2,4(1H,3H)-dione]",0.1 ± 0.03 µM,> 10 µM,–
"O=c1[nH]c2cc(-c3ccc(Cl)cc3)sc2c(=O)n1O [Compound 10c, 6-(4-Chlorophenyl)-3-hydroxythieno[3,2-d]pyrimidine-2,4(1H,3H)-dione]",–,> 10 µM,–
"O=C1Cc2cc(-c3ccccc3)ccc2C(=O)N1O [Compound 14, 2-Hydroxy-6-phenylisoquinoline-1,3(2H,4H)-dione]",–,> 10 µM,"RT IC50 Pol [2, 7]: without inhibiting RT pol"
"O=c1[nH]c2sc(Cc3ccccc3)cc2c(=O)n1O [Compound 11b, 6-Benzyl-3-hydroxythieno[2,3-d]pyrimidine-2,4(1H,3H)-dione]",–,> 10 µM,–
"O=c1[nH]c2cc(-c3ccc(Cl)cc3)ccc2c(=O)n1O [Compound 9b, 7-(4-Chlorophenyl)-3-hydroxyquinazoline-2,4(1H,3H)-dione]",–,> 10 µM,–
"O=c1[nH]c2cc(-c3ccccc3)sc2c(=O)n1O [Compound 10a, 3-Hydroxy-6-phenylthieno [3,2-d]pyrimidine-2,4(1H,3H)-dione]",0.1 ± 0.06 µM,> 10 µM,"RT IC50 Pol [2, 7]: no RT pol inhibition"
"O=c1[nH]c2cc(-c3ccccc3)ccc2c(=O)n1O [Compound 9a, 3-Hydroxy-7-phenylquinazoline-2,4(1H,3H)-dione]",–,> 10 µM,fold increase in RNase H inhibition ([1]; vs. compound 14): 6.5 fold; fold decrease in INST inhibition ([5]; vs. compound 14): 5.5 fold
"O=c1[nH]c2sc3c(c2c(=O)n1O)CCN(Cc1ccccc1)C3 [Compound 11m, 7-Benzyl-3-hydroxy-5,6,7,8-tetrahydropyrido[4′,3′:4,5]thieno[2,3-d]pyrimidine-2,4(1H,3H)-dione hydrochloride]",0.1 ± 0.04 µM,> 10 µM,EC50 [3]: > 20 µM; CC50 at 72 h [4]: > 100 µM; IC50 [5]: 8.3 ± 0.8 µM
"3-Hydroxy-1,5,6,7-tetrahydro-2H-cyclopenta[4, 5]thieno[2,3-d]pyrimidine-2,4(3H)-dione [Compound 11i]",–,–,"IC50 [2, 8]: > 10 µM; CC50 [6]: > 100 µM"
"Cc1csc2[nH]c(=O)n(O)c(=O)c12 [Compound 11f, 3-Hydroxy-5-methylthieno[2,3-d]pyrimidine-2,4(1H,3H)-dione]",0.1 ± 0.02 µM,> 10 µM,–
"O=c1[nH]c2sc3c(c2c(=O)n1O)CCNC3 [Compound 11l, 3-Hydroxy-5,6,7,8-tetrahydropyrido[4′,3′:4,5]thieno[2,3-d]pyrimidine-2,4(1H,3H)-dione hydrobromide]",0.3 ± 0.03 µM,> 10 µM,EC50 [3]: > 20 µM; CC50 at 72 h [4]: > 100 µM; IC50 [5]: 17 ± 3 µM
"3-Hydroxy-5,6,7,8-tetrahydrobenzo[4, 5]thieno[2,3-d]pyrimidine-2,4(1H,3H)-dione [Compound 11j]",–,–,"IC50 [2, 8]: > 10 µM; CC50 [6]: > 100 µM"
"O=c1[nH]c2sc(-c3ccccc3)cc2c(=O)n1O [Compound 11a, 3-Hydroxy-6-phenylthieno[2,3-d]pyrimidine-2,4(1H,3H)-dione]",–,> 10 µM,–
"O=c1[nH]c2scc(-c3ccccc3)c2c(=O)n1O [Compound 11c, 3-Hydroxy-5-phenylthieno[2,3-d]pyrimidine-2,4(1H,3H)-dione]",0.1 ± 0.03 µM,> 10 µM,–
"O=c1[nH]c2cc(-c3ccc(F)cc3)sc2c(=O)n1O [Compound 10b, 6-(4-Fluorophenyl)-3-hydroxythieno[3,2-d]pyrimidine-2,4(1H,3H)-dione]",–,> 10 µM,–
"O=c1[nH]c2sccc2c(=O)n1O [Compound 11e, 3-Hydroxythieno[2,3-d]pyrimidine-2,4(1H,3H)-dione]",–,> 10 µM,–
